In patent US8003660B2, “Modulators of muscarinic receptors” (Vertex Pharmaceuticals Incorporated, priority 2006, dated 2011):

What was measured:
Assay type in all cases: cell-based
[1] = biological target: T1, M3 muscarinic receptor (Homo sapiens, UniProt P20309); experiment: Functional mobilization of intracellular calcium (FLIPR) in CHO cells expressing M3; conditions: for M3 Activity: CHO cells expressing M3, FLIPR calcium assay; for Emax: CHO, 100% efficacy = maximum response obtained with the Carbachol control
T1 construct: expressed in transfected cells; host or cells: CHO (M3-CHO)
T1 sequence (P20309 whole entry): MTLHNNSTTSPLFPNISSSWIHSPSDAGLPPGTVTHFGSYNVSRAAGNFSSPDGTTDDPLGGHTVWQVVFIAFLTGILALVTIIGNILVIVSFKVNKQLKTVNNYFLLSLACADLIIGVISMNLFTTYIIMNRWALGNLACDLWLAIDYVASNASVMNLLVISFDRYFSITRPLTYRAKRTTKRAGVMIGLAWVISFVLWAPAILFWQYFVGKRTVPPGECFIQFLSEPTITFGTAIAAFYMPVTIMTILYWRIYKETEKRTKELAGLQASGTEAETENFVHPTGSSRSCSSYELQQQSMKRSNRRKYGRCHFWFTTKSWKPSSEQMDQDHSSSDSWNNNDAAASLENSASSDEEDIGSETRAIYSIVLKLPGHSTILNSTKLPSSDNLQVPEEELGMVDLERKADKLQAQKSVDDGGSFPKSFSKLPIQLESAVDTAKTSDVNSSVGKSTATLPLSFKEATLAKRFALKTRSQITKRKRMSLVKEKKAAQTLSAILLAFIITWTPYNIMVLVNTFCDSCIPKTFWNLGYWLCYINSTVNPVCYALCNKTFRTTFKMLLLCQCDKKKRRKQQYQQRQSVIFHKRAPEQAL
Procedure, shortened: (§1)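 Recombinant CHO cells loaded with Fluo-3 AM or Calcium 3 dye in pH 7.4 buffer containing 1 mM probenecid, with 0.5% final DMSO. For agonism, compound is added directly. For inhibition, it is preincubated 15 min, or co-applied, before carbachol at EC80. FLIPR fluorescence (ex 488, em 540 nm) is recorded for 60 s.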

[2] = biological target: T2, M4 muscarinic receptor (Homo sapiens, UniProt P08173); experiment: Functional mobilization of intracellular calcium (FLIPR) in CHO cells expressing M4; conditions: for M4 Activity: CHO cells expressing M4, FLIPR calcium assay; for Emax: CHO, 100% efficacy = maximum response obtained with the Carbachol control
T2 construct: expressed in transfected cells; host or cells: CHO (M4-CHO)
T2 sequence (P08173 1-479): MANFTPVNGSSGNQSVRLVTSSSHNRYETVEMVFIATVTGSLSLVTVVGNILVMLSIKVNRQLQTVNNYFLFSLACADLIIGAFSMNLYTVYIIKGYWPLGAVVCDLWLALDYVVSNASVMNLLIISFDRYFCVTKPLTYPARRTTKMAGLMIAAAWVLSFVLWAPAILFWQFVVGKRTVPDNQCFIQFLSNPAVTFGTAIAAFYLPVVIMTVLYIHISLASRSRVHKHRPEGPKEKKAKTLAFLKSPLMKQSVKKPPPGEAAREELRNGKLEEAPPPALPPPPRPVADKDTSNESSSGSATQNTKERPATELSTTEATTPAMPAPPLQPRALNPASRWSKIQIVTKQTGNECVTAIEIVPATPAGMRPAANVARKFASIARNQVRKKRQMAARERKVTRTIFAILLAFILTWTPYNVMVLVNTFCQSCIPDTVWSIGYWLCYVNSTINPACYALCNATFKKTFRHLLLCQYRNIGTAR
Procedure, shortened: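 Calcium flux is read on FLIPR over 60 sec at 488/540 nm in muscarinic-receptor CHO lines. Antagonist mode adds carbachol at EC80 after 15 min compound preincubation or with simultaneous co-application. Agonist mode adds compound alone. Cells carry Fluo-3 or Calcium 3 dye in probenecid-containing pH 7.4 buffer, 0.5% DMSO final.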

[3] = biological target: T3, M1 muscarinic receptor (Homo sapiens, UniProt P11229); experiment: Functional mobilization of intracellular calcium (FLIPR) in CHO cells expressing M1; conditions: for M1 Activity: CHO cells expressing M1, FLIPR calcium assay; for Emax: CHO, 100% efficacy = maximum response obtained with the Carbachol control
T3 construct: expressed in transfected cells; host or cells: CHO (M1-CHO)
T3 sequence (P11229 1-460): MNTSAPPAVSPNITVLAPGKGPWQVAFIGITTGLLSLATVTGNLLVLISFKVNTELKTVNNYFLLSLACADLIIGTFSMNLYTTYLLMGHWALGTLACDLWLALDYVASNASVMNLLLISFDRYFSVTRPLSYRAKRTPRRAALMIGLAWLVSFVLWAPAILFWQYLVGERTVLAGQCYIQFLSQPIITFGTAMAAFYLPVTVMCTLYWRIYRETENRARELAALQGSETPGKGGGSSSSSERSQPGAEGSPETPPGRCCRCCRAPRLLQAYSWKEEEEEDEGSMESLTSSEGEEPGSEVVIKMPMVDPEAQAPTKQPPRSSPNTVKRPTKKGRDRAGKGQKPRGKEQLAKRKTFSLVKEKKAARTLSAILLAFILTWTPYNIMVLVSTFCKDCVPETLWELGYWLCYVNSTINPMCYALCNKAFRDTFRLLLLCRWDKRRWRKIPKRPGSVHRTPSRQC
Procedure, shortened: as §1

[4] = biological target: T4, M2 muscarinic receptor (Homo sapiens, UniProt P08172); experiment: Functional mobilization of intracellular calcium (FLIPR) in CHO cells expressing M2; conditions: for M2 Activity: CHO cells expressing M2, FLIPR calcium assay; for Emax: CHO, 100% efficacy = maximum response obtained with the Carbachol control
T4 construct: expressed in transfected cells; host or cells: CHO (M2-CHO)
T4 sequence (P08172 1-466): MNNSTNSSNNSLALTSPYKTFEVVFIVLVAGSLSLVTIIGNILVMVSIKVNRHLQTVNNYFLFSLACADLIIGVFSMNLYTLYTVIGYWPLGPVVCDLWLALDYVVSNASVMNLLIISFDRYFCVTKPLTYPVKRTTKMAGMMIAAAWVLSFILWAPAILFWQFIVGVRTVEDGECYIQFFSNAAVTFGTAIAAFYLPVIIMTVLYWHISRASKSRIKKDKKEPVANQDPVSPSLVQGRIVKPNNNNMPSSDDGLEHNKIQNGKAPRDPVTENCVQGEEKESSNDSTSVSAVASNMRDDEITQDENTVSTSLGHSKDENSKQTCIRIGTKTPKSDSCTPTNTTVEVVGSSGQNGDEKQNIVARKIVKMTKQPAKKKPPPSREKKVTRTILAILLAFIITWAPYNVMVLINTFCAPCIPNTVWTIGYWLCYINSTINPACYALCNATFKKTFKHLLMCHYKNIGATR
Procedure, shortened: as §1

| Compound | M3 Activity [1] | Emax [1] | M4 Activity [2] | Emax [2] | M1 Activity [3] | Emax [3] | M2 Activity [4] | Emax [4] |
| --- | --- | --- | --- | --- | --- | --- | --- | --- |
| COCCC(=O)N[C@@H]1CCC2(CCN(CCC(C)(C)C)CC2)c2cc(F)ccc21 [compound 212] | + (activity was measured to be greater than 5.0 μM) | < 25% | +++ (activity was measured to be less than 2.0 μM) | 25 to 100% | +++ (activity was measured to be less than 2.0 μM) | 25 to 100% | + (activity was measured to be greater than 5.0 μM) | < 25% |
| CCN(C(C)=O)[C@H]1CCC2(CCN(CCC(C)C)CC2)c2ccccc21 [compound 213] | + (activity was measured to be greater than 5.0 μM) | < 25% | +++ (activity was measured to be less than 2.0 μM) | 25 to 100% | ++ (activity was measured to be from 2.0 μM to 5.0 μM) | 25 to 100% | + (activity was measured to be greater than 5.0 μM) | < 25% |
| CC(C)(C)CCN1CCC2(CC[C@@H](NC(=O)C3CC3)c3ccc(F)cc32)CC1 [compound 214] | + (activity was measured to be greater than 5.0 μM) | < 25% | +++ (activity was measured to be less than 2.0 μM) | 25 to 100% | +++ (activity was measured to be less than 2.0 μM) | 25 to 100% | +++ (activity was measured to be less than 2.0 μM) | < 25% |
| COCCC(=O)N[C@H]1CCC2(CCN(CCC(C)(C)C)CC2)c2cc(F)ccc21 [compound 215] | + (activity was measured to be greater than 5.0 μM) | < 25% | +++ (activity was measured to be less than 2.0 μM) | 25 to 100% | +++ (activity was measured to be less than 2.0 μM) | 25 to 100% | +++ (activity was measured to be less than 2.0 μM) | 25 to 100% |
| Cc1cc(C(=O)N[C@@H]2CCC3(CCN(CCC(C)(C)C)CC3)c3ccccc32)nn1C [compound 216] | + (activity was measured to be greater than 5.0 μM) | < 25% | +++ (activity was measured to be less than 2.0 μM) | 25 to 100% | ++ (activity was measured to be from 2.0 μM to 5.0 μM) | 25 to 100% | ++ (activity was measured to be from 2.0 μM to 5.0 μM) | 25 to 100% |
| CC(C)(C)CCN1CCC2(CC[C@@H](NC(=O)C3CCOCC3)c3ccc(F)cc32)CC1 [compound 217] | + (activity was measured to be greater than 5.0 μM) | < 25% | +++ (activity was measured to be less than 2.0 μM) | 25 to 100% | ++ (activity was measured to be from 2.0 μM to 5.0 μM) | 25 to 100% | + (activity was measured to be greater than 5.0 μM) | < 25% |
| CC(=O)N(C)[C@H]1CCC2(CCN(CCC(C)(C)C)CC2)c2cc(F)ccc21 [compound 218] | + (activity was measured to be greater than 5.0 μM) | < 25% | +++ (activity was measured to be less than 2.0 μM) | 25 to 100% | +++ (activity was measured to be less than 2.0 μM) | 25 to 100% | +++ (activity was measured to be less than 2.0 μM) | < 25% |
| Cn1cncc1C(=O)N[C@H]1CCC2(CCN(CCC(C)(C)C)CC2)c2ccccc21 [compound 219] | + (activity was measured to be greater than 5.0 μM) | < 25% | +++ (activity was measured to be less than 2.0 μM) | 25 to 100% | +++ (activity was measured to be less than 2.0 μM) | 25 to 100% | +++ (activity was measured to be less than 2.0 μM) | 25 to 100% |
